Measured values taken from patent US11572350B1, “Benzothia(di)azepine compounds and their use as bile acid modulators” (Albireo AB, priority 2020, dated 2023).
pIC50: −log10 of the molar value.

Columns and labels:
[1] = Bidirectional permeability assay (Caco-2 cells); assay type: in vitro ADME; details: human, FaSSIF donor buffer, 120 minutes at 37° C.; for Papp A→B at 120 min, 10 µM: Caco-2, pH 7.4, absorptive direction (A2B); for Papp B→A at 120 min, 10 µM: Caco-2, pH 7.4, secretory direction (B2A)
Text: Bidirectional Permeability Assay (Caco-2 Cells)
HepaRG-Based Assay Protocol

human LBAT = target: T1, human LBAT (Homo sapiens, UniProt Q14973); experiment: LBAT (h/m) assay: 3H-taurocholic acid uptake in human LBAT-overexpressing cells; assay type: cell-based; details: 0.3 μM 3H-taurocholic acid and 7.5 μM cold taurocholic acid, 20 minutes, read-out: hLBAT IC50
T1 construct: expressed in transfected cells; kept under Geneticin selection
T1 sequence (Q14973 1-349): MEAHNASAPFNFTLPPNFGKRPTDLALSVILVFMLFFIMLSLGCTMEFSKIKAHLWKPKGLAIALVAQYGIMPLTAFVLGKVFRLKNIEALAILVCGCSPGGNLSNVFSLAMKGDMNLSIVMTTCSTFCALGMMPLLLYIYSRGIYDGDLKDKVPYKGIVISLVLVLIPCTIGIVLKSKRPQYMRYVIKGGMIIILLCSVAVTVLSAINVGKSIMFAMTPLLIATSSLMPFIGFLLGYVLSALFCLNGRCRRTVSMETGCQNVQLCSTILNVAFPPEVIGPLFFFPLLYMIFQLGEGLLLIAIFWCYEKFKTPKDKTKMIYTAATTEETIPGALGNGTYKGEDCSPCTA
Method: LBAT (h/m) Assay Protocol
20,000 cells (Human or Mouse LBAT-overexpressing cells) were seeded in 96-wells plate (Corning CLS3809) in 100 μL MEM-alpha medium (Gibco 12571-063) supplemented with 10% FBS (Gibco 10438026) containing Geneticin (Gibco 10131-027) (1 mg/mL) and incubated at 37° C. in 5% CO2 for 24 hours. After incubation, media was decanted from the wells and cells were washed two times with 300 μL of basal MEM-alpha medium (FBS-free). After decanting basal MEM-alpha medium each time, plates were tapped against paper towel to ensure maximum removal of residual media. For human LBAT, incubation mix was prepared by adding test inhibitor dilutions (3-fold serial dilution in DMSO (Sigma D2650), 10 points) in MEM-alpha (without FBS) containing 0.3 μM 3H-taurocholic acid (ARC ART-1368) and 7.5 μM cold taurocholic acid (Sigma T4009) (maintaining 0.2% final DMSO concentration). For mouse LBAT, incubation mix was prepared by adding test inhibitor dilutions (3-fold serial dilution in DMSO, 10 points) in MEM-alpha (without FBS) containing 0.3 μM 3H-taurocholic acid and 25 μM cold taurocholic acid maintaining 0.2% final DMSO concentration). 50 μL of incubation mix containing test inhibitors was then added to the wells (in duplicate) and the plates were incubated for 20 minutes in a CO2 incubator at 37° C. After incubation, the reaction was stopped by keeping the plates on ice water mix for 2-3 minutes and then the incubation mix was aspirated completely from the wells. The wells were washed two times with 250 μL of chilled unlabelled 1 mM taurocholic acid dissolved in HEPES (Gibco 15630080)-buffered (10 mM) HBSS (Gibco 14175079) (pH 7.4). The plates were tapped against a paper towel after every wash to ensure maximum removal of blocking buffer.
100 μL of MicroScint-20 (PerkinElmer 6013621) was added to the wells and kept overnight at room temperature before reading the plates in TopCount NXT™ Microplate Scintillation and Luminescence Counter from PerkinElmer under 3H Test protocol (set at 120 seconds reading time per well, with normal plate orientation).
(§1) Preparation of Test Compound Dilutions
(§2) All test compounds were provided in powder form at room temperature. 10 mM DMSO stocks of the test compounds were prepared, aliquoted and stored at −20° C. From the 10 mM DMSO stock of the compounds, a 3-fold serial dilution in DMSO was prepared to get a total of 10 dilutions of the test compounds. 0.5 μL of this dilution in DMSO was added to 250 μL of FBS-free basal media containing 3H-taurocholic acid and cold taurocholic acid to prepare the incubation mixture.

human IBAT = target: T2, human IBAT (Homo sapiens, UniProt Q12908); experiment: IBAT (h/m) assay: 3H-taurocholic acid uptake in human IBAT-overexpressing cells; assay type: cell-based; details: 0.25 μM 3H-taurocholic acid and 5 μM cold taurocholic acid, 20 minutes, highest test concentration 10 μM, read-out: hIBAT IC50
T2 construct: expressed in transfected cells; kept under Puromycin selection
T2 sequence (Q12908 1-348): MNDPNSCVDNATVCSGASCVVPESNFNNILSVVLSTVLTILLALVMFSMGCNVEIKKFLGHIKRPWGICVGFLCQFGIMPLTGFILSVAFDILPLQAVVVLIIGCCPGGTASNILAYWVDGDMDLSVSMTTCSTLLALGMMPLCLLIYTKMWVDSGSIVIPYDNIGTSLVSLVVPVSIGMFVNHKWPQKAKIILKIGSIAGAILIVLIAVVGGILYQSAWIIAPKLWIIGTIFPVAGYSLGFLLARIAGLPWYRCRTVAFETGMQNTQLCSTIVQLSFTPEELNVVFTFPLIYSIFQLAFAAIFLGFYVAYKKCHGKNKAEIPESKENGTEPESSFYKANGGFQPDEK
Method: IBAT (h/m) Assay Protocol
10,000 cells (Human or Mouse IBAT-overexpressing cells) were seeded in 96-wells plate (Corning CLS3809) in 200 μL MEM-alpha medium (Gibco 12571-063) supplemented with 10% FBS (Gibco 10438026) containing Puromycin (Gibco A1113803) (10 μg/mL) and incubated at 37° C. in 5% CO2 for 48 hours. After incubation, media was decanted from the wells and cells were washed two times with 300 μL of basal MEM-alpha medium (FBS-free). After decanting basal MEM-alpha medium each time, plates were tapped against paper towel to ensure maximum removal of residual media. Test inhibitor dilutions (highest test concentration being 10 μM, 3-fold serial dilution, 10 points) prepared in DMSO (Sigma D2650) were added in incubation mix (maintaining 0.2% final DMSO concentration) containing 0.25 μM 3H-taurocholic acid (ARC ART-1368) and 5 μM of cold taurocholic acid (Sigma T4009). 50 μL of incubation mix containing test inhibitors was then added to the wells (in duplicate) and the plates were incubated for 20 minutes in a CO2 incubator at 37° C. After incubation, the reaction was stopped by keeping the plates on ice water mix for 2-3 minutes and then the incubation mix was aspirated completely from the wells. The wells were washed two times with 250 μL of chilled unlabelled 1 mM taurocholic acid dissolved in HEPES (Gibco 15630080)-buffered (10 mM) HBSS (Gibco 14175079) (pH 7.4). The plates were tapped against a paper towel after every wash to ensure maximum removal of blocking buffer.
100 μL of MicroScint-20 (PerkinElmer 6013621) was added to the wells and kept overnight at room temperature before reading the plates in TopCount NXT™ Microplate Scintillation and Luminescence Counter from PerkinElmer under 3H Test protocol (set at 120 seconds reading time per well).
as §1, §2

OATP KO mice = experiment: Effect of LBAT selective compounds on serum bile acid levels in OATP KO mice; assay type: in vivo; details: male OATP KO mice; oral dosing at the indicated doses; FIGS. 1 to 4; n=4
Text: Effect of LBAT Selective Compounds on Serum Bile Acid Levels in OATP KO Mice
Male OATP KO mice (Oatp1a/1b cluster knockout mice, Taconic, USA) aged 8 to 9 weeks were used in the studies. After completion of quarantine and acclimatization period, animals were randomized based on body weight into experimental groups (n=4 mice in each). On the experimental day, a baseline blood sample was collected followed by oral dosing of vehicle (0.5% CMC, 0.1% Tween 80) or compound of Example 3, 6, 13 or 15 at the indicated doses. Blood samples were then collected at various time points after dose (indicated in each graph). Blood was allowed to clot, and serum was collected by centrifugation at 3000 g, 4° C. for 15 minutes and stored at −80° C. for further analysis. The total bile acid concentration in each serum sample was determined by using the CELL BIOLABS Total Bile Acids kit (STA631) according to manufacturer's instructions. Mean±SEM, n=4.

SMILES	Papp A→B at 120 min, 10 µM [1]	Papp B→A at 120 min, 10 µM [1]	pIC50 (human LBAT)	pIC50 (human IBAT)	Effect on serum bile acid levels (OATP KO mice)
CCCCC1CN(c2ccc(F)cc2)c2cc(SC)c(O/C=C/C(=O)O)cc2S(=O)(=O)N1 (racemic) [Example 1, (E)-3-((3-Butyl-5-(4-fluorophenyl)-7-(methylthio)-1,1-dioxido-2,3,4,5-tetrahydro-1,2,5-benzothiadiazepin-8-yl)oxy)acrylic acid]	7.3 ×10⁻⁶ cm/s	17.2 ×10⁻⁶ cm/s	9.00	5.78	
CCCCC1CN(c2ccc(F)cc2)c2cc(SCC)c(O/C=C/C(=O)O)cc2S(=O)(=O)C1 (racemic) [Example 7, (E)-3-((3-Butyl-7-(ethylthio)-5-(4-fluorophenyl)-1,1-dioxido-2,3,4,5-tetrahydro-1,5-benzothiazepin-8-yl)oxy)acrylic acid]	11.3 ×10⁻⁶ cm/s	8.9 ×10⁻⁶ cm/s	8.59	< 5.00	
CCCCC1CN(c2ccc(F)cc2)c2cc(SC)c(O/C=C(\F)C(=O)O)cc2S(=O)(=O)C1 (racemic) [Example 10, (Z)-3-((3-butyl-5-(4-fluorophenyl)-7-(methylthio)-1,1-dioxido-2,3,4,5-tetrahydro-1,5-benzothiazepin-8-yl)oxy)-2-fluoroacrylic acid]	2.9 ×10⁻⁶ cm/s	8.5 ×10⁻⁶ cm/s	8.80	6.08	
CCCCC1CN(c2ccc(F)cc2)c2cc(SCC)c(O/C=C(\F)C(=O)O)cc2S(=O)(=O)C1 (racemic) [Example 16, (Z)-3-((3-butyl-7-(ethylthio)-5-(4-fluorophenyl)-1,1-dioxido-2,3,4,5-tetrahydro-1,5-benzothiazepin-8-yl)oxy)-2-fluoroacrylic acid]	1 ×10⁻⁶ cm/s	3.6 ×10⁻⁶ cm/s	8.60	5.86	
CCCCC1CN(c2ccc(F)cc2)c2cc(SC)c(O/C=C(\F)C(=O)O)cc2S(=O)(=O)N1C (racemic) [Example 19, (Z)-3-((3-butyl-5-(4-fluorophenyl)-2-methyl-7-(methylthio)-1,1-dioxido-2,3,4,5-tetrahydro-1,2,5-benzothiadiazepin-8-yl)oxy)-2-fluoroacrylic acid]	4.3 ×10⁻⁶ cm/s	6.1 ×10⁻⁶ cm/s	8.72	6.61	
CCCCC1CN(c2ccc(F)cc2)c2cc(SCC)c(O/C=C/C(=O)O)cc2S(=O)(=O)N1 (racemic) [Example 30, (E)-3-((3-butyl-7-(ethylthio)-5-(4-fluorophenyl)-1,1-dioxido-2,3,4,5-tetrahydro-1,2,5-benzothiadiazepin-8-yl)oxy)acrylic acid]	6.5 ×10⁻⁶ cm/s	8.7 ×10⁻⁶ cm/s	8.59	5.39	
CCCCC1CN(c2ccccc2)c2cc(SCC)c(O/C=C/C(=O)O)cc2S(=O)(=O)N1 (single isomer, unassigned) [Example 6, (E)-3-((3-butyl-7-(ethylthio)-1,1-dioxido-5-phenyl-2,3,4,5-tetrahydro-1,2,5-benzothiadiazepin-8-yl)oxy)acrylic acid]			6.89	< 5.00	increased serum bile acid levels
CCCCC1CN(c2ccc(F)cc2)c2cc(SCC)c(O/C=C(\F)C(=O)O)cc2S(=O)(=O)C1 (single isomer, unassigned) [Example 18, (Z)-3-((3-butyl-7-(ethylthio)-5-(4-fluorophenyl)-1,1-dioxido-2,3,4,5-tetrahydro-1,5-benzothiazepin-8-yl)oxy)-2-fluoroacrylic acid]	1.1 ×10⁻⁶ cm/s	3.1 ×10⁻⁶ cm/s	8.59	6.19	
CCCCC1CN(c2ccc(F)cc2)c2cc(SC)c(O/C=C(\F)C(=O)O)cc2S(=O)(=O)N1C (single isomer, unassigned) [Example 20, (Z)-3-((3-butyl-5-(4-fluorophenyl)-2-methyl-7-(methylthio)-1,1-dioxido-2,3,4,5-tetrahydro-1,2,5-benzothiadiazepin-8-yl)oxy)-2-fluoroacrylic acid]	2.7 ×10⁻⁶ cm/s	10.5 ×10⁻⁶ cm/s	9.10	6.87	
CCCCC1CN(c2ccccc2)c2cc(SCC)c(O/C=C(\F)C(=O)O)cc2S(=O)(=O)N1C (single isomer, unassigned) [Example 25, (Z)-3-((3-butyl-7-(ethylthio)-2-methyl-1,1-dioxido-5-phenyl-2,3,4,5-tetrahydro-1,2,5-benzothiadiazepin-8-yl)oxy)-2-fluoroacrylic acid]	1.9 ×10⁻⁶ cm/s	3.9 ×10⁻⁶ cm/s	9.05	6.37	
